System: MCP-1 induced THP-1 migration
Test: Trans-well THP-1 migration assay, MCP-1 as chemoattractant
Assay type: cell-based, human
Conditions: concentrations above 50 μM
Protocol: FIG. 1 is a schematic of the trans-well migration assay. In most experiments, the peptide (wavy line) is added to the upper well with about 50,000 cells (O). The upper and lower wells are separated by a 5 μm or 8 μm pore size PVP-free membrane (- - - -). Chemokine (●) is added to the lower well. After 4 hours, the number of cells that have migrated through the membrane are measured (◯ in lower well).
To determine whether an agent inhibits a chemokine-induced activity, such as macrophage recruitment, varying amounts of the agent are mixed with cells in the presence of a known chemoattractant. For example, a range of known concentrations of an agent, e.g., a chemokine peptide, is incubated with a defined number (e.g., 10^4-10^6) of human THP-1 monocyte cells in individual wells of the top compartment of a trans-well plate. Chemokine (such as MCP-1, MIP1α, IL8 or SDF-1α), at a concentration known to cause significant migration of THP-1 cells in the trans-well migration assay, is placed in the lower compartment (FIG. 1). Cells are then incubated at 37° C. for a period sufficient to allow migration, e.g., 4 hours. After incubation, the cells are gently removed from the top of the filter with a pipette, 20 μl of 20 mM EDTA in simple PBS is added into each top well, and incubated for 20 minutes at 4° C. The filter is carefully flushed with media using a gentle flow, and removed. A standard curve consisting of a two-fold dilution series of THP-1 cells (in 29 μl) is prepared to accurately quantify the number of cells that have migrated. Migrated cells are stained with 3 μl of MTT stock dye solution which is added directly into each well (5 mg/ml in RPMI-1640 without phenol red, Sigma Chemical Co.) and incubated at 37° C. for 4 hours. The media is carefully aspirated from each well, and the converted dye is solubilized by 20 μl of DMSO. Absorbance of converted dye is measured at a wavelength of 595 nm using an ELISA plate reader. The number of migrated cells in each well is then determined by interpolation of the standard curve (see also Imai et al., J. Biol. Chem., 272, 15036 (1997)).
Any method suitable for counting cells can be used, for example, counting with a hemocytometer, incubation of the cells with MTT (see above), or FACS analysis. A negative control assay is also performed, using TGF-β or another non-chemokine chemoattractant (e.g., IL1β or TNFα). To assess whether the agent is cytotoxic, the same concentrations of agent are incubated with THP-1 cells. Agents which 1) are not cytotoxic at levels which inhibit migration, 2) are ineffective at inhibiting the negative control-induced migration, and 3) reduce or inhibit chemokine-induced THP-1 migration, are agents which fall within the scope of the invention.
For this assay, THP-1 cells were maintained at a density of 4×10^5 cells per ml in RPMI-1640 supplemented with 10% fetal calf serum+20 μM 2-mercaptoethanol. Chemotaxis was induced in a 96-well disposable chemotaxis chamber fitted with a […] polycarbonate filter (PVP free, ChemoTX, Neuroprobe Inc., Cabin John). Twenty-nine μl of chemoattractant (recombinant human chemokine; 50 ng/ml, i.e., 5.9 nM) or control (100 ng/ml TGFβ) was added to the lower compartment of each well. The framed filter was aligned with the holes in the corner of the filter frame and placed over the wells. Five×10^4 THP-1 cells in 25 μl of RPMI-1640 culture media were added to the upper compartment. Peptides were dissolved in Milli Q water and then serially diluted in culture medium. In most cases, the serially diluted peptides were added to the upper compartment of the chemotaxis chamber. The chamber was incubated at 37° C. in a humidified atmosphere of 5% CO2 for 4 hours.
After incubation, the cells were gently removed from the top of the filter with a pipette, 20 μl of 20 mM EDTA in PBS was added into each top well, and the mixture was incubated for 20 minutes at 4° C. The filter was then carefully flushed with media using a gentle flow, and removed. […]

## EICADPKQKWVQ [Peptide 3]
  effect on MCP-1 induced THP-1 migration at concentrations above 50 μM: abolished all of the MCP-1 induced THP-1 migration

Reference: US6989435B2, “Compounds and methods to inhibit or augment an inflammatory response” (Cambridge University Technical Services Ltd., priority 1997, dated 2006)
